Assay results as given in patent US20260076983A1, “CANNABINOIDS COMPOSITIONS WITH POLYUNSATURATED FATTY ACID MONOGLYCERIDES AS A SPECIFIC COX-2 INHIBITOR, METHODS AND USES THEREOF” (SCF PHARMA INC., priority 2022, published 2026).

Target: T1, COX-2 enzyme (Homo sapiens, UniProt P35354)
T1 construct: PGE2 levels in lipopolysaccharide (LPS)-challenged human whole blood; from tissue; host or cells: human whole blood (heparin tube) from one volunteer, LPS-challenged ex vivo
T1 sequence (P35354 18-604): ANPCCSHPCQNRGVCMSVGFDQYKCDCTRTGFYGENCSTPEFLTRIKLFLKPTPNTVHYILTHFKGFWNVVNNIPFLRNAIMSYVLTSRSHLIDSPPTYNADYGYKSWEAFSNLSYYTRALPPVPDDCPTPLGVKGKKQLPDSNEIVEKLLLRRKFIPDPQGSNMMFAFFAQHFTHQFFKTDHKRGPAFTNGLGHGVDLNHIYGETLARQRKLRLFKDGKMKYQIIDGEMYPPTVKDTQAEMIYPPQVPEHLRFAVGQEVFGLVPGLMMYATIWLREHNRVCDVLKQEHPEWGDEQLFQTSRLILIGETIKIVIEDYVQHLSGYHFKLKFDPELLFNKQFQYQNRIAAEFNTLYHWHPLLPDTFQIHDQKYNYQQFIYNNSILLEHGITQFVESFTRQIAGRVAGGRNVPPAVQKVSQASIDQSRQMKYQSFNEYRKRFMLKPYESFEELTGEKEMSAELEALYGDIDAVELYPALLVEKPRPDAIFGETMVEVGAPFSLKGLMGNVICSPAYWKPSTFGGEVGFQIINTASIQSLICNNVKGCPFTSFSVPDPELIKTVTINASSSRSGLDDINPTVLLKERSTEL
Assay: PGE2 levels in LPS-challenged human whole blood after oral capsules (human case study)
Type: in vivo
Conditions: cross-over, blood 3.5 h after dosing
Procedure: 200 mg of cannabidiol (CBD) dissolved in 2.0 g of MCT oil, 2.0 g of compound of formula (IV) alone and 200 mg of cannabidiol (CBD) dissolved in 2.0 g of compound of formula (IV) were separately encapsulated in four (4) hard gel capsules (size 00) for a cross over COX-2 case study. A pilot cross-over case study was conducted in one volunteer over a three (3) week periods with one experiment per week. In the morning of the experiment, 10 ml of blood was collected in heparin tube from the volunteer fasted for 10 h. The four (4) hard gel capsules were swallowed with a glass of water and blood collection was repeated after 3.5 h. PGE2 levels in lipopolysaccharide (LPS)-challenged human whole blood was measured as biochemical index for cyclooxygenase COX-2 activity (Brideau C, Kargman S, Liu S, Dallob A L, Ehrich E W, Rodger I W, Chan C C. A human whole blood assay for clinical evaluation of biochemical efficacy of cyclooxygenase inhibitors. Inflamm Res. 1996 February; 45(2):68-74. doi: 10.1007/BF02265118. PMID: 8907587).
100 mg of cannabidiol (CBD) dissolved in 2.0 g of compound of formula (IV) was encapsulated in four (4) hard gel capsules (size 00) for COX-1 and COX-2 case study. A pilot case study was conducted in one volunteer. In the morning of the case study, 20 ml of blood was collected (1×10 ml serum tube and 1×10 ml heparin tube) from the volunteer fasted for 10 h. […]

inhibition of the COX-2 enzyme (Example 1, one volunteer, oral hard gel capsules, 200 mg CBD in 2.0 g MCT oil, 2.0 g compound of formula (IV) alone, 200 mg CBD in 2.0 g compound of formula (IV)): 10%
inhibition of the COX-2 enzyme (in words) (Example 3, one volunteer, 2.0 g compound of formula (IV), oral capsules): mild inhibition
Compound: CC/C=C\C/C=C\C/C=C\C/C=C\C/C=C\CCCC(=O)OCC(O)CO (centres unmarked) [compound of formula (IV)]
